The results in this text go back to a melting point compilation (Tetko et al.; mined from patent text by program, amines drawn as free bases though some values may be those of a salt).

In turn, `COc1ccc2cc(-c3ccc(-c4ccccc4)[nH]3)ccc2c1` returned a melting point of 208 to 210 °C.

With `COC(=O)c1ccc(OCCNC(=O)c2ccc(F)cc2)cc1`, the melting point is 105 to 107 °C.

For `CCn1ncnc1COc1nc2c(cnn2-c2ccccc2)cc1C(C)(C)C`, the melting point was 150 to 152 °C.

Take `COc1cccc(CSc2nnc(-c3ccc4c(c3)CCO4)o2)c1`: the melting point lay in the range of 91 to 93 °C.

Take `C=CC(=O)NCC(C(=O)c1ccccc1)C(=O)c1ccccc1`: the melting point lay in the range of 146 to 148 °C.

As for `COc1cc(C=Cc2ccccc2)ccc1OCC(O)CCCc1cccnc1` (stereo unspecified), the melting point fell in the range of 110 to 111 °C.

Compound `CCOC(=O)c1cnc2c(c(C)nc3cc(C)nn32)c1Cl` displayed a melting point of 143 to 145 °C.

Turning to `O=C1CCC(O)(c2ccc(Cl)c(Cl)c2)CN1Cc1ccccc1` (stereo unspecified), the melting point amounted to 128 °C.

For `NC(=O)c1csc(C2OC(CO)C(O)C2O)n1` (stereo unspecified), the melting point is 142 to 144 °C.

For `CC1CCC(C(=O)Nc2ccc(-c3ncc(-c4ccc(NC(=O)C5CCCCC5C)cc4)[nH]3)cc2)CC1` (stereo unspecified), the melting point lay within 218 to 220 °C.

`O=C1NC(=O)C(c2ccccc2Cl)C1SC1=NCCS1` (stereo unspecified) displayed a melting point of 195 to 200 °C.

`CC(C)c1cc2c(=O)n3cc(C#N)ccc3nc2s1`: the melting point is 225 to 226 °C.

In the case of `NC(=O)[C@@H]1CCCN1C(=O)CNP(=O)(Cc1ccccc1)Cc1ccccc1`, the melting point lay in the range of 91 to 95 °C.

Compound `COc1cc2nc(N)nc(-c3ccc(Br)cc3CO)c2cc1OC` registered a melting point of 222 to 223 °C.

`CC1(C)CSc2c(-c3ccccc3)c(-c3ccc(Cl)cc3)cn2C1` showed a melting point of 147 to 148 °C.

`O=C(Cl)c1ccc2c(c1I)OCO2` registered a melting point of 69 to 70 °C.

Take `CCC1(CC)O[C@@H](Oc2ccc3c(O)c(NC(=O)C(C)C)c(=O)oc3c2C)[C@H](O)[C@H](OC(=O)C2(C)C=CCN2)[C@H]1OC` (stereo partly specified): the melting point lay in the range of 140 to 142 °C.

In turn, `CN(C)CCOc1ccc(Nc2nccc(-c3cccnc3)n2)cc1` registered a melting point of 108 to 110 °C.

`CCC(OC)(c1ccc(OCc2cc3ccccc3[nH]c2=O)c(OC)c1)c1nccs1` (stereo unspecified) yielded a melting point of 170 to 171 °C.

Compound `CCc1nccn1N=Cc1ccc(N(C)C)cc1` registered a melting point of 120 to 121 °C.

`CCOC(=O)c1c(NCC(=O)c2ccccc2Cc2ccccc2)c2c(Cl)cc(Cl)cc2n1C(=O)OC(C)(C)C` came in with a melting point of 163 °C.

`Cc1c(OCC2=NCCN2)ccc(Br)c1NS(C)(=O)=O` showed a melting point of 272 °C.

On to `CC1Oc2cc(F)c(N)cc2NC1=O` (stereo unspecified), for which the melting point lay within 208 to 211 °C.

`CS(=O)(=O)c1ccc(-c2cnn(CC(F)(F)F)c(=O)c2Oc2ccc(C#N)cc2)cc1` gave a melting point of 179 to 181 °C.

For `CS(=O)(=O)c1ccc(C2=C(c3ccccc3)C(=NO)C2)cc1`, the melting point lay in the range of 146 to 148 °C.

With `CC(=O)Oc1ccc(-c2c3ccccc3c(Br)c3sc4ccccc4c23)cc1OC(C)=O`, the melting point lay in the range of 178 to 179 °C.

For the compound `O=C(Nc1cccnc1)c1cc2ccncc2[nH]1`, the melting point lay within 270 to 290 °C.

As for `CCCN(CCN1CCN(c2ccccc2OC)CC1)C1CCc2ncsc2C1` (stereo unspecified), the melting point amounted to 136 °C.

For the compound `O=C(O)c1cccnc1Nc1cccc([N+](=O)[O-])c1`, the melting point was 262 to 264 °C.

Compound `CC(C)CC(Sc1ccccc1)c1c(O)cc(-c2ccccc2)oc1=O` (stereo unspecified) gave a melting point of 154 to 156 °C.

`Nc1cc(I)ccc1Nc1cccc(-n2cccn2)c1`: the melting point is 134 to 135 °C.

As to `CC(C)c1cccc(C(C)C)c1NC(=O)CN1CCCN(CCCSc2nc3cccc(C(F)(F)F)c3o2)CC1`, the melting point lay in the range of 77 to 79 °C.

`CCCCc1ccc(Oc2ccc(C#CC(C)N(O)C(N)=O)o2)cc1` (stereo unspecified) came in with a melting point of 116 to 118 °C.

As to `c1ccc(CNc2nnc(-c3ccc(CN4CCCCCC4)s3)s2)cc1`, the melting point is 165 to 166 °C.

In turn, `O=C(CON=C(C(=O)O)c1csc(NC(=O)C(F)(F)F)n1)OC(c1ccccc1)c1ccccc1` returned a melting point of 178 to 180 °C.

Turning to `CC(C)N1CC(OCC2CC2)(C(F)(F)F)c2cc(Cl)ccc2NC1=O` (stereo unspecified), the melting point worked out at 170 °C.

In turn, `O=C(CC1CCCC1)NC[C@H]1CN(c2ccc3c(c2)CCCc2cn[nH]c2-3)C(=O)O1` yielded a melting point of 205 to 208 °C.

`O=C(C=Cc1ccc(O)c(OC(F)(F)F)c1)C(CCOCCO)C(=O)C=Cc1ccc(O)c(OC(F)(F)F)c1` (stereo unspecified) showed a melting point of 112 to 114 °C.

For the compound `COC(=O)C(=C/c1cc(OC)c(OC)c(OC)c1)/C(=C\c1ccccc1)C(N)=O`, the melting point fell in the range of 144 to 146 °C.

`CCOC(=O)c1cnc(-c2ccc(Cl)cc2)nc1-c1ccc(OC)c(OC)c1` registered a melting point of 115 °C.

Take `COc1ccc(S(=O)(=O)N2c3ccc(Cl)cc3C(O)(c3ccccc3Cl)C2C(=O)N2CCN(C)CC2)cc1OC` (stereo unspecified): the melting point was 120 °C.

Compound `C=CC(O)c1cc(O)ccc1[N+](=O)[O-]` (stereo unspecified) came in with a melting point of 126 to 130 °C.

`CC(=O)N1Cc2c(-c3noc(C4CC4)n3)ncn2-c2ccccc21` yielded a melting point of 187 to 188 °C.

Compound `O=C(O)c1c(NCc2ccccc2)nc2ccc(Br)cc2c1Cl` came in with a melting point of 182 to 184 °C.

In turn, `N#Cc1ccc(NC(=N)Nc2ncccc2OCc2ccccc2)cc1` registered a melting point of 173 to 175 °C.

Take `CC1=C(C(=O)OC(C)C)C(c2cccc([N+](=O)[O-])c2)n2c(n[nH]c2=O)N1` (stereo unspecified): the melting point lay within 225 to 227 °C.

With `O=c1c2c([nH]c3cn[nH]c13)CCCC2`, the melting point was > 325 °C.

`C#CC(C)(O)C1CCC2C3CCC4CC(F)CCC4(C)C3CCC21C` (stereo unspecified) showed a melting point of 230 to 231 °C.

The compound `CCOP(=O)(Cc1cc2c(cc1CP(=O)(OCC)OCC)C(CC)(CC)N(Cc1ccccc1)C2(CC)CC)OCC` yielded a melting point of 81 to 83 °C.

For `CCCCCCCCCCNC(=O)c1cc(NCC(=O)O)cc(C(=O)NCCCCCCCCCC)c1`, the melting point fell in the range of 172 to 173 °C.

Consider `N#CCCNC(=O)c1cccc(-c2ccnc3cc(Cc4cccc(C(F)(F)F)c4)oc23)c1`, for which the melting point lay in the range of 164 to 165 °C.

The compound `CCOC(=O)CC[C@H](NC(=O)/C=C/C(=O)c1ccccc1)C(=O)OCC` had a melting point of 83 to 85 °C.

The compound `COC(=O)c1ccc([N+](=O)[O-])cc1S(=O)(=O)O` came in with a melting point of 92 to 94 °C.

Turning to `Cn1c(=O)n(-c2ccnc(N)c2)c2ccccc21`, the melting point is 204 to 205 °C.

`O=C(COc1ccc(CCC(=O)C(F)(F)F)cc1)NC(c1ccc(Cl)cc1)c1ccc(Cl)cc1` came in with a melting point of 145 to 146 °C.

As to `COc1ccc(Nc2nc(NC3CCCCCC3)nc(Oc3ccccc3I)n2)cc1Cl`, the melting point is 206 to 208 °C.

Consider `CC(=CCO)c1ccc(-c2ccccc2)cc1`, for which the melting point was in the range of 112 to 114 °C.

Regarding `O=C(O)Cc1cc2c(c(C(=O)O)c1)NCCC2`, the melting point was 210 to 211 °C.

In turn, `CCCn1c(=O)c2[nH]c(C34CC5CC(CC(O)(C5)C3)C4)nc2n(CCC)c1=O` returned a melting point of 213 to 214 °C.

In turn, `COCC1OC(n2cnc3c(NC4CCCC4)ncnc32)C(O)C1O` (stereo unspecified) had a melting point of 164 to 166 °C.

`COc1cc(C(O)c2cccs2)cc([N+](=O)[O-])c1OC` (stereo unspecified) showed a melting point of 79 to 81 °C.

`O=C(c1ccccc1)c1ccc(CO)cc1` gave a melting point of 59 to 61 °C.

Compound `CN(Cc1ccc(Cl)nc1)C(N)=N[N+](=O)[O-]` had a melting point of 158 °C.

For the compound `Cc1cc(C(=O)NCCO)ncc1C(c1c(F)ccc(F)c1F)S(=O)(=O)CCC(F)(F)F` (stereo unspecified), the melting point was 146 to 147 °C.

On to `CC(C)C[C@H](NC(=O)[C@@H]1CCCN1c1nc2ccccc2c(=O)o1)C(=O)NCC(N)=O`, for which the melting point lay in the range of 199 to 201 °C.

`Oc1c(F)cc(Oc2ncc(C(F)(F)F)cc2F)cc1F` returned a melting point of 125 to 128 °C.

In the case of `Oc1cccc(-c2ccccc2-c2nc(-c3ccccc3)c(-c3ccccc3)o2)c1`, the melting point was 125 to 128 °C.

Consider `CC(=O)OC1CSC(Oc2ccc3cc[nH]c3c2)C(OC(C)=O)C1OC(C)=O` (stereo unspecified), for which the melting point lay within 172 to 175 °C.

For `O=C(NCC(F)(F)F)c1cccc(-c2nc(=O)c3ccccc3s2)n1`, the melting point lay within 243 to 244 °C.

On to `O=C(O)c1sc(-c2cccc(Cl)c2)nc1O`, for which the melting point fell in the range of 107 to 108 °C.

Compound `CC(C)(C)OC(=O)NC(Cc1ccccc1)C(O)CNCC(O)C(Cc1cccc(OCc2ccccc2)c1)NC(=O)OC(C)(C)C` (stereo unspecified) showed a melting point of 125 to 145 °C.

As for `CCOCc1nc2c(N)nc(C)cc2n1CCCCNS(C)(=O)=O`, the melting point was 162 to 164 °C.

Turning to `O=Cc1c(O)c(O)cc([N+](=O)[O-])c1CCCC(=O)O`, the melting point was in the range of 164 to 168 °C.

On to `CCOC(=O)N1CCN(CCNc2ncnc3c2sc2nc(-c4ccoc4)c4c(c23)CC(C)(C)CC4)CC1`, for which the melting point fell in the range of 85.1 to 86.4 °C.

`CCCCCCCCCCCCCCCc1cccc(OCC(=O)O)c1` displayed a melting point of 96 °C.

The compound `CC(C)n1cc(-c2nc(C(N)=O)c(N)nc2-c2ccccc2F)ccc1=O` came in with a melting point of 252 °C.

`O=CNC1Cc2ccc([N+](=O)[O-])cc2C1` (stereo unspecified) showed a melting point of 91 to 92 °C.

In the case of `CN(C)C1CCc2c(c3ccccc3n2C)C1` (stereo unspecified), the melting point is > 300 °C.

Turning to `CC(C)NC(=O)c1cc2nc(C3CC3)n(C)c2c(Cl)c1NC(=O)c1cc(C(F)(F)F)nn1-c1ncccc1Cl`, the melting point lay within 242 to 244 °C.

The compound `O=C1Nc2ccc(Br)cc2C(c2ccccc2)=NC1OC(=O)C(F)(F)F` (stereo unspecified) yielded a melting point of 181 to 183 °C.

In the case of `Cc1ccc(NC(=O)N(C)Cc2cccc3c2C(=O)N(C2CCC(=O)NC2=O)C3=O)cc1C` (stereo unspecified), the melting point lay in the range of 202 to 204 °C.

`Cc1c(-c2ccccc2)oc2c(C(=O)CBr)cccc2c1=O`: the melting point was 134 to 135 °C.

Compound `Cc1c(C(=O)Nc2ccc(N3CCN(CCCO)CC3)c(C#N)c2)cnn1-c1ccc(Cl)cc1` registered a melting point of 213 °C.

As for `CCSc1cc(C)nc(SCC)c1NC(=O)CCCSc1nc2ccccc2s1`, the melting point lay within 119 to 120 °C.

The compound `C#CCOC(=O)C1C(C)=NC(N2CCCCC2)=C(C(=O)OCC)C1c1cccc([N+](=O)[O-])c1` (stereo unspecified) displayed a melting point of 121 °C.

`C[Si](C)(C)c1cccc2c1Sc1c(cccc1[Si](C)(C)C)S2` returned a melting point of 90 to 91 °C.
